From ChEMBL document CHEMBL1201862, “PubChem BioAssay data set” (2004)
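Interpolation was linear, between the two tested concentrations surrounding the appropriate level; five concentrations were tested over 48 hours in 96-well plates. GI50 = concentration required for 50% inhibition of growth.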 Activity calls are given as the source filed them. No stated cut-off is given here; in the data, active = GI50 up to about 1.1 µM and inactive = higher.

How the values were obtained:
Experiment in all cases: NCI-60 cell line screen, 48 h
CCRF-CEM = test system: CCRF-CEM
LOX IMVI = test system: LOX IMVI
SF-539 = test system: SF-539
RXF 393 = test system: RXF 393
SNB-75 = test system: SNB-75
SK-MEL-2 = test system: SK-MEL-2
786-0 = test system: 786-0
U-251 = test system: U-251
A549 = test system: A549
SN12C = test system: SN12C
OVCAR-4 = test system: OVCAR-4
T47D = test system: T47D
SF-268 = test system: SF-268
Malme-3M = test system: Malme-3M
MDA-MB-435 = test system: MDA-MB-435
DU-145 = test system: DU-145
OVCAR-8 = test system: OVCAR-8
HOP-62 = test system: HOP-62
SK-MEL-5 = test system: SK-MEL-5
MDA-N = test system: MDA-N
RPMI-8226 = test system: RPMI-8226
TK-10 = test system: TK-10
SK-MEL-28 = test system: SK-MEL-28
SNB-19 = test system: SNB-19
Hs-578T = test system: Hs-578T
K562 = test system: K562
HCC 2998 = test system: HCC 2998
A498 = test system: A498
MOLT-4 = test system: MOLT-4
UACC-257 = test system: UACC-257
MCF7 = test system: MCF7
EKVX = test system: EKVX
NCI/ADR-RES = test system: NCI/ADR-RES
HT-29 = test system: HT-29
NCI-H522 = test system: NCI-H522
NCI-H226 = test system: NCI-H226
CAKI-1 = test system: CAKI-1
UO-31 = test system: UO-31
COLO 205 = test system: COLO 205
OVCAR-5 = test system: OVCAR-5
PC-3 = test system: PC-3
M14 = test system: M14
IGROV-1 = test system: IGROV-1
HCT-15 = test system: HCT-15
SF-295 = test system: SF-295
NCI-H23 = test system: NCI-H23
OVCAR-3 = test system: OVCAR-3
ACHN = test system: ACHN
SW-620 = test system: SW-620
BT-549 = test system: BT-549
HCT-116 = test system: HCT-116
NCI-H460 = test system: NCI-H460

Measured: GI50

CC(Nc1cc(Cl)cc(Cl)c1)c1ccncc1 (configuration not stated)
29.1 µM: HCT-15
inactive: CCRF-CEM 15.3 µM | LOX IMVI 10.9 µM | SF-539 21.8 µM | RXF 393 20.7 µM | SNB-75 23.3 µM | SK-MEL-2 > 10 µM | 786-0 26.2 µM | U-251 17.9 µM | A549 27.8 µM | SN12C > 10 µM | OVCAR-4 38.9 µM | T47D 7.85 µM | SF-268 17.9 µM | Malme-3M 27.7 µM | MDA-MB-435 22.2 µM | DU-145 > 10 µM | OVCAR-8 18.5 µM | HOP-62 15.8 µM | SK-MEL-5 15.4 µM | MDA-N 21.3 µM | RPMI-8226 18.2 µM | TK-10 41.8 µM | SK-MEL-28 30.6 µM | SNB-19 33.8 µM | Hs-578T 35.2 µM | K562 13.6 µM | HCC 2998 16.8 µM | A498 23.3 µM | MOLT-4 13.9 µM | UACC-257 22.8 µM | MCF7 16.2 µM | EKVX 22.4 µM | NCI/ADR-RES 20.5 µM | HT-29 27.7 µM | NCI-H522 15.3 µM | NCI-H226 11.5 µM | CAKI-1 17.2 µM | UO-31 13.3 µM | COLO 205 15.6 µM | OVCAR-5 16.2 µM | PC-3 12.1 µM | M14 17.6 µM | IGROV-1 15.4 µM | SF-295 18.5 µM | NCI-H23 23.9 µM | OVCAR-3 16.6 µM | ACHN 22.4 µM | SW-620 17.4 µM | BT-549 22.4 µM | HCT-116 14.8 µM | NCI-H460 16.9 µM
